Laboratory results from patent publication US11046700B2, “Substituted imidazo[1,2-a]pyrazines, pyrazolo[1,5-c]pyrimidines, pyrazolo[1,5-a]pyridines, and purines for the treatment of schistosomiasis” (Merck Patent GmbH, priority 2017, dated 2021).
Where two headings read alike, the source gives them in different places.

Legend:
Assay type in all cases: cell-based
S. mansoni adult worms = assay: In vitro assay, S. mansoni adult worms; conditions: Schistosoma mansoni, read-out: (a) Adult
Description: (§1) The routine biological assays using adult or juvenile worms and cytotoxicity assays using MRC-5 cells have been disclosed previously in Mansour, N. R., et al. (2016). “High Throughput Screening Identifies Novel Lead Compounds with Activity against Larval, Juvenile and Schistosoma mansoni PLoS Negl Trap Dis 10(4): e0004659. Cytotoxicity assays using the HepG2 cell line were carried out as described in Molecular Diversity (2015) 19, 251-261.
(a) S. mansoni adult worms

[1] = tested on: S. mansoni juvenile worms; assay: In vitro assay, S. mansoni juvenile worms; conditions: Schistosoma mansoni, read-out: (b) Juvenile
Description: as §1
(b) S. mansoni juvenile worms

HepG2 cell line = assay: Cytotoxicity against human HepG2 cell lines
[2] = S. mansoni adult worms, in vitro
[3] = S. mansoni juvenile worms, in vitro

SMILES	IC50 (S. mansoni adult worms) [nM]	IC50 [1] [nM]	(e) Cytotox HepG2 (HepG2 cell line) [µM]	IC50 (S. mansoni adult worms; [2]) [nM]	IC50 [1, 3] [nM]
CC(C)c1nc2cnc(-c3cccc(C(F)(F)F)c3)cn2c1-c1ccc(OP(=O)(O)O)cc1F [Example 3, 3-fluoro-4-[2-(propan-2-yl)-6-[3-(trifluoromethyl)phenyl]imidazo[1,2-a]pyrazin-3-yl]phenoxyphosphonic acid]	< 49	130	9.2	–	–
CC(C)c1nc2cnc(-c3cccc(C(F)(F)F)c3)cn2c1-c1c(F)cc(O)cc1F [Example 19, 3,5-difluoro-4-[2-(propan-2-yl)-6-[3-(trifluoromethyl)phenyl]imidazo[1,2-a]pyrazin-3-yl]phenol]	–	–	7.5	42	90
CC(C)c1nc2cnc(-c3cccc(C(F)(F)F)c3)cn2c1-c1ccc2[nH]ncc2c1F [Example 21, 4-fluoro-5-{2-propan-2-yl-6-[3-trifluoromethylphenyl]imidazo[1,2-a]pyrazin-3-yl}-1H-indazole]	–	–	15.1	37	51
CC(C)c1nn2cnc(-c3cccc(C(F)(F)F)c3)cc2c1-c1c(F)cc(O)cc1F [Example 24, 3,5-difluoro-4-(2-isopropyl-5-(3-(trifluoromethyl)phenyl)pyrazolo[1,5-c]pyrimidin-3-yl)phenol]	–	–	8.4	22	< 12
COc1ccc(-c2c(C(F)(F)F)nc3cnc(-c4cccc(C(F)(F)C(F)(F)F)c4)cn23)cc1O [Example 30, 2-methoxy-5-[2-(trifluoromethyl)-6-[3-(pentafluoroethyl)phenyl]imidazo[1,2-a]pyrazin-3-yl]phenol]	–	–	11.1	21	< 12
CC1(c2nc3cnc(-c4ccc(F)c(C(F)(F)F)c4)cn3c2-c2c(F)cc(O)cc2F)CC1 [Example 33, 3,5-difluoro-4-[2-(1-methyl-cycloprop-1-yl)-6-[4-fluoro-3-(trifluoromethyl)phenyl]imidazo[1,2-a]pyrazin-3-yl]phenol]	–	–	7.9	56	80
Oc1cc(F)c(-c2c(C3CCC3)nc3cnc(-c4ccc(F)c(C(F)(F)F)c4)cn23)c(F)c1 [Example 35, 4-(2-cyclobutyl-6-(4-fluoro-3-(trifluoromethyl)phenyl)imidazo[1,2-a]pyrazin-3-yl)-3,5-difluorophenol]	–	–	5.7	59	73
CCc1nc2cnc(-c3ccc(F)c(C(F)(F)F)c3)cn2c1-c1c(F)cc(O)cc1F [Example 36, 3,5-difluoro-4-[2-ethyl-6-[4-fluoro-3-(trifluoromethyl)phenyl]imidazo[1,2-a]pyrazin-3-yl]phenol]	–	–	8.3	53	51
CC(C)c1nc2cnc(-c3cccc(S(F)(F)(F)(F)F)c3)cn2c1-c1c(F)cc(O)cc1F [Example 39, 3,5-difluoro-4-[2-(propan-2-yl)-6-[3-(pentafluorosulfanyl)phenyl]imidazo[1,2-a]pyrazin-3-yl]phenol]	–	–	6.6	24	< 12
CC(C)c1nc2cnc(-c3ccc(F)c(C(F)(F)F)c3)cn2c1-c1c(F)cc(OP(=O)(O)O)cc1F [Example 40, 3,5-difluoro-4-{6-[4-fluoro-3-(trifluoromethyl)phenyl]-2-(propan-2-yl)imidazo[1,2-a]pyrazin-3-yl}phenoxyphosphonic acid]	27	25	6.5	–	–
Fc1c(-c2c(C3CC3)nc3cnc(-c4cccc(S(F)(F)(F)(F)F)c4)cn23)ccc2[nH]ncc12 [Example 46, 2-cyclopropyl-3-(4-fluoro-1H-indazol-5-yl)-6-(3-(pentafluoro-λ6-sulfaneyl)phenyl)imidazo[1,2-a]pyrazine]	–	–	20.7	–	36
CC(C)c1nn2cnc(-c3ccc(F)c(C(F)(F)F)c3)cc2c1-c1c(F)cc(O)cc1F [Example 47, 3,5-difluoro-4-(5-(4-fluoro-3-(trifluoromethyl)phenyl)-2-isopropylpyrazolo[1,5-c]pyrimidin-3-yl)phenol]	–	–	8.9	22	27
CCc1nn2cnc(-c3ccc(F)c(C(F)(F)F)c3)cc2c1-c1c(F)cc(O)cc1F [Example 48, 4-(2-ethyl-5-(4-fluoro-3-(trifluoromethyl)phenyl)pyrazolo[1,5-c]pyrimidin-3-yl)-3,5-difluorophenol]	–	–	9.8	11	32
Cc1nc2cnc(-c3cccc(C(F)(F)C(F)(F)F)c3)cn2c1-c1c(F)cc(O)cc1F [Example 49, 3,5-difluoro-4-[2-methyl-6-[3-(pentafluoroethyl)phenyl]imidazo[1,2-a]pyrazin-3-yl]phenol]	–	–	9.3	34	35
CCc1nc2cnc(-c3cccc(C(F)(F)C(F)(F)F)c3)cn2c1-c1c(F)cc(O)cc1F [Example 52, 4-[2-Ethyl-6-(3-pentafluoroethyl-phenyl)-imidazo[1,2-a]pyrazin-3-yl]-3,5-difluoro-phenol]	–	–	8.0	< 12	10
Cc1nc2cnc(-c3ccc(F)c(C(F)(F)C(F)(F)F)c3)cn2c1-c1c(F)cc(O)cc1F [Example 53, 3,5-Difluoro-4-[6-(4-fluoro-3-pentafluoroethyl-phenyl)-2-methyl-imidazo[1,2-a]pyrazin-3-yl]-phenol]	–	–	8.8	19	20
Oc1cc(F)c(-c2c(C3CC3)nc3cnc(-c4ccc(F)c(S(F)(F)(F)(F)F)c4)cn23)c(F)c1 [Example 56, 4-[2-Cyclopropyl-6-(4-fluoro-3-pentafluorosulfanyl-phenyl)-imidazo[1,2-a]pyrazin-3-yl]-3,5-difluoro-phenol]	–	–	10.1	19	20
Fc1ccc(-c2cn3c(-c4ccc5[nH]ncc5c4F)c(C4CC4)nc3cn2)cc1S(F)(F)(F)(F)F [Example 57, 2-Cyclopropyl-3-(4-fluoro-1H-indazol-5-yl)-6-(4-fluoro-3-pentafluorosulfanyl-phenyl)-imidazo[1,2-a]pyrazine]	–	–	14.8	17	30
CC(C)c1nn2cnc(-c3ccc(F)c(C(F)(F)C(F)(F)F)c3)cc2c1-c1ccc2[nH]ncc2c1F [Example 58, 3-(4-Fluoro-1H-indazol-5-yl)-5-(4-fluoro-3-pentafluoroethyl-phenyl)-2-isopropylpyrazolo[1,5-c]pyrimidine]	–	–	10.8	31	20
O=P(O)(O)Oc1cc(F)c(-c2c(C3CC3)nc3cnc(-c4ccc(F)c(C(F)(F)F)c4)cn23)c(F)c1 [Example 62, Phosphoric acid mono-{4-[2-cyclopropyl-6-(4-fluoro-3-trifluoromethyl-phenyl)-imidazo[1,2-a]pyrazin-3-yl]-3,5-difluoro-phenyl}ester]	–	3.7	14.8	–	–
Fc1ccc(-c2cn3c(-c4ccc5[nH]ncc5c4F)c(C(F)(F)F)nc3cn2)cc1S(F)(F)(F)(F)F [Example 65, 3-(4-Fluoro-1H-indazol-5-yl)-6-(4-fluoro-3-pentafluorosulfanyl-phenyl)-2-trifluoromethyl-imidazo[1,2-a]pyrazine]	–	–	11.1	44	11
CC(C)c1cccc(-c2cn3c(-c4ccc5[nH]ncc5c4F)c(C(F)(F)F)nc3cn2)c1 [Example 66, 3-(4-Fluoro-1H-indazol-5-yl)-6-(3-isopropyl-phenyl)-2-trifluoromethyl-imidazo[1,2-a]pyrazine]	–	–	12.9	5.2	5.2
Fc1ccc(-c2cn3c(-c4ccc5[nH]ncc5c4F)c(C(F)(F)F)nc3cn2)cc1CC(F)(F)F [Example 69, 3-(4-Fluoro-1H-indazol-5-yl)-6-[4-fluoro-3-(2,2,2-trifluoro-ethyl)-phenyl]-2-trifluoromethyl-imidazo[1,2-a]pyrazine]	–	–	5.3	12	10
Fc1ccc(-c2cn3c(-c4ccc5[nH]ncc5c4F)c(C(F)(F)F)nc3cn2)cc1OC(F)(F)F [Example 71, 3-(4-Fluoro-1H-indazol-5-yl)-6-(4-fluoro-3-trifluoromethoxy-phenyl)-2-trifluoromethyl-imidazo[1,2-a]pyrazine]	–	–	12.2	14	21
Fc1c(-c2c(C(F)(F)F)nc3cnc(-c4cccc(OC(F)(F)F)c4)cn23)ccc2[nH]ncc12 [Example 72, 3-(4-Fluoro-1H-indazol-5-yl)-6-(3-trifluoromethoxy-phenyl)-2-trifluoromethyl-imidazo[1,2-a]pyrazine]	–	–	9.7	21	23
CC(C)c1cc(-c2cn3c(-c4ccc5[nH]ncc5c4F)c(C(C)C)nc3cn2)ccc1F [Example 74, 3-(4-Fluoro-1H-indazol-5-yl)-6-(4-fluoro-3-isopropyl-phenyl)-2-isopropyl-imidazo[1,2-a]pyrazine]	–	–	11.0	4	5
CCc1nc2cnc(-c3ccc(F)c(C(C)C)c3)cn2c1-c1ccc2[nH]ncc2c1F [Example 75, 2-Ethyl-3-(4-fluoro-1H-indazol-5-yl)-6-(4-fluoro-3-isopropyl-phenyl)-imidazo[1,2-a]pyrazine]	–	–	11.3	4	5
